Test [1] concerns monoclonal anti-sirolimus antibody (clone 155-M1). In words: Calculated cross-reactivity of releasing agent with antibody of the sirolimus ACMIA assay. The conditions noted are these: for Calculated antibody cross-reactivity (percent (%) times 100): sirolimus assay, measured at calibrator of 0 ng/mL, measured value/46.7 μg/mL analog. Format: binding. The protocol: (§1) Preparation of anti-sirolimus antibody-β-galactosidase conjugate. Monoclonal anti-sirolimus antibody (clone 155-M1 from Wyeth Pharmaceutical) was conjugated to β-galactosidase using a standard heterobifunctional SMCC (succinimidyl trans-4-(N-maleimidylmethyl)cyclohexane-1-carboxylate) linker according to known techniques. The antibody conjugate solution contained approximately 7.5 μg/mL anti-sirolimus antibody-β-galactosidase conjugate, 30 mg/mL protease free bovine serum albumin, 0.126 mg/mL MgCl2, 0.03 mL/mL of ethylene glycol, 35.14 mg/mL PIPES 1.5 sodium salt, 50 mg/mL NaCl and beta-gal mutein (inactivated β-galactosidase), pH 6.5.
(§2) Anti-sirolimus antibody-β-galactosidase conjugate (50 μL) was added next to each of the reaction vessels and the mixture was held for a period of time (10 to 15 minutes) and at a temperature of 43° C. to allow sirolimus, if present, to react with the antibody reagent. Chrome particles with immobilized sirolimus-biotin conjugate to streptavidin-coated chrome particle were added (50 μL) to each of the reaction vessels and were allowed to bind un-bound conjugate. […] The sirolimus-bound conjugate was detected by transferring the supernatant from each of the reaction vessels to a photometric cuvette and measuring the enzymatic rate of the conjugate in the presence of chlorophenol red-β-D-galactopyranoside (CPRG). The rate for each reaction vessel was measured bichromatically at 577 and 700 nm. The results are summarized in Table 1 under the categories: instrument signal observed for calibrators, drug concentration measured in ng/mL, percent (%) displaced vs. SIRO and calculated antibody cross-reactivity (percent (%) times 100). Cross-reactivity was based on the following: • 1) 70 μL of pretreatment reagent solution was added to the reaction medium versus 15 μL of sample, total reaction mixture volume=305 μL. • 2) 10 μg/mL of SIRO analog was in the pretreatment reagent solution. • 3) 10 μg/mL of SIRO analog from pretreatment reagent is equivalent to 46.7 μg/mL of SIRO analog added from sample (Calculation: 70 μL×10 μg/mL/15 μL=46.7 μg/mL) • 4) Measured sirolimus value at 0 ng/mL calibrator. • 5) Measure value/46.7 is % cross-reactivity.

The test system of test [2] is endogenous specific binding proteins (FKBP) in whole blood. In words: ACMIA assay for sirolimus: release of sirolimus from endogenous binding substances in spiked whole blood by releasing agent. The conditions noted are these: for Drug concentration measured / Percent (%) displaced vs. SIRO: releasing agent 10 μg/mL. How it is done:
(§3) Testing was carried out using the DIMENSION® RxL analyzer, available from Siemens Healthcare Diagnostics Inc., Newark Del. The instrument was employed using ACMIA immunoassay technology. The ACMIA assay method is described in U.S. Pat. Nos. 7,842,475, 7,186,518, 5,147,529, 5,128,103, 5,158,871, 4,661,408, 5,151,348, 5,302,532, 5,422,284, 5,447,870, and 5,434,051, the disclosures of which are incorporated herein in their entirety. In the embodiment of the ACMIA method used herein and discussed in more detail below, competition between tacrolimus analog on chrome particles and tacrolimus in patient samples for antibody for tacrolimus conjugated to an enzyme (the “conjugate”) is utilized to determine the amount of tacrolimus in patient samples. Conjugate that binds to the tacrolimus analog on chrome particles is removed by magnetic separation. The enzymatic activity from the conjugate remaining in the supernatant is measured and is directly proportional to the amount of tacrolimus in the patient sample. […] The enzymatic activity observed when no chrome particle is present is indicative of the total amount of enzymatic activity in the conjugate.
(§4) Preparation of pretreatment reagent solution. This pretreatment solution was prepared to contain an amount of releasing agent, 6.8 mg/mL PIPES 1.5 sodium salt (buffer), 0.3 mg/mL EDTA disodium (clot prevention agent), 1.0 mg/mL saponin (hemolytic agent), 0.2% PROCLIN® 300 (preservative), 0.024 mg/mL neomycin sulfate (preservative) and 0.99 mg/mL NaN3, pH 6.5. The amount of releasing agent in each of the pretreatment reagent solutions was 10 μg/mL. The releasing agent concentration in the final reaction mixture was equivalent to 46.7 μg/mL of the analog added from the sample.
Preparation of anti-sirolimus antibody-β-galactosidase conjugate. […] The antibody conjugate solution contained approximately 7.5 μg/mL anti-sirolimus antibody-β-galactosidase conjugate, 30 mg/mL protease free bovine serum albumin, 0.126 mg/mL MgCl2, 0.03 mL/mL of ethylene glycol, 35.14 mg/mL PIPES 1.5 sodium salt, 50 mg/mL NaCl and beta-gal mutein (inactivated β-galactosidase), pH 6.5.
Magnetic chrome particle preparation. Sirolimus chrome particles (immunoassay solid phase) were prepared by conjugating sirolimus-biotin conjugate to streptavidin-coated chrome particle (prepared in a manner similar to that described in U.S. Pat. No. 7,842,475). The chrome particle reagent contained approximately 2.5 mg/mL sirolimus chrome particle slurry, 60.8 mg/mL trehalose dihydrate and 7.2 mg/mL CARBOWAX®.
(§5) Preparation of samples. Aliquots of a whole blood pool are spiked with an amount of sirolimus so that the resulting concentration of sirolimus in the whole blood samples in the calibrators is as set forth in Table 1 (0.0, 5.1, 10.1, 20.6 and 31.6 ng/mL). Aliquots of a whole blood pool are spiked with an amount of tacrolimus so that the resulting concentration of […] (0.0, 2.6, 5.3, 11.6 and 30.1 ng/mL).
(§6) Pretreatment of samples. A set of samples was treated as follows: To each sample was added an amount of the pretreatment reagent solution from above for displacing sirolimus in the sample from endogenous specific binding proteins. The samples were incubated at 37° C. for a period of 140 minutes. Subsequently, each sample was subjected to the aforementioned assay, which is further described below; and signal (mAU) was measured and related to a concentration of analyte that represents the amount of free analyte (analyte that is not bound by endogeneous binding substances plus analyte that was displaced from endogeneous binding substances) in the samples.
Assay. The ACMIA assay for sirolimus was carried out as follows: 15 μL of a whole blood sample from above was mixed with the pretreatment reagent solution from above (Displacer) (Table 1) in a vessel on the DIMENSION® RxL analyzer.

Test [3] has as its system monoclonal anti-tacrolimus antibody (clone 1H6). The test is described as follows: Calculated cross-reactivity of releasing agent with antibody of the tacrolimus ACMIA assay. Type of test: binding. The conditions noted are these: measured at calibrator of 0 ng/mL. The protocol: as §1, with “anti-tacrolimus” for “anti-sirolimus”, “1H6, see for example U.S. Pat. No. 7,078,495) is” for “155-M1 from Wyeth Pharmaceutical) was”, “contains” for “contained”
as §2, with “reagent.” for “reagent. Chrome particles with immobilized sirolimus-biotin conjugate to streptavidin-coated chrome particle were added (50 μL) to each of the reaction vessels and were allowed to bind un-bound conjugate.”, “cross-reactivity. […]” for “cross-reactivity.”

For test [4], the system named is endogenous specific binding proteins (FKBP) in whole blood. The test is described as follows: ACMIA assay for tacrolimus: release of tacrolimus from endogenous binding substances in spiked whole blood by releasing agent. Particulars: for Drug concentration measured / Percent (%) displaced vs. SIRO: releasing agent 10 μg/mL. The protocol:
as §3, §4
as §1, with “anti-tacrolimus” for “anti-sirolimus”, “1H6, see for example U.S. Pat. No. 7,078,495) is” for “155-M1 from Wyeth Pharmaceutical) was”, “contains” for “contained”
The chrome particle reagent contained approximately 2.5 mg/mL tacrolimus chrome particle slurry, 60.8 mg/mL trehalose dihydrate and 7.2 mg/mL CARBOWAX®.
as §5, §6
The above format for releasing an analyte (using the concentration of releasing agent (Displacer) shown) and conducting an assay for the analyte was repeated for samples containing tacrolimus.

[5] abbreviates: sirolimus assay, result in words.
Where [6] appears, read: sirolimus calibrator 10.1 ng/mL.
Setting [7] is: sirolimus calibrator 20.6 ng/mL.
Where [8] appears, read: sirolimus calibrator 31.6 ng/mL.
Where [9] appears, read: tacrolimus assay, result in words.
Setting [10] is: tacrolimus calibrator 0.0 ng/mL.
The mark [11] stands for this setting: tacrolimus calibrator 2.6 ng/mL.
Setting [12] is: tacrolimus calibrator 5.3 ng/mL.
Setting [13] is: tacrolimus calibrator 11.6 ng/mL.
Where [14] appears, read: tacrolimus calibrator 30.1 ng/mL.

As for `C=CC[C@@H]1/C=C(\C)C[C@H](C)C[C@H](OC)[C@H]2O[C@@](O)(C(=O)C(=O)N3CCCC[C@H]3C(=O)O[C@H](/C(C)=C/[C@@H]3CC[C@@H](O)[C@H](OC)C3)[C@H](C)[C@@H](O)CC1=O)[C@H](C)C[C@@H]2OC` [Tacro, tacrolimus], the “Calculated antibody cross-reactivity (percent (%) times 100)” value in test [1] was 0.00 % × 100. Also, the “Displacement efficiency compared with mixture of V and VI” value in test [2] (setting [5]) is listed as “lower displacement efficiency”. In addition, the “Drug concentration measured” value is -0.1 ng/mL in test [2] (sirolimus calibrator 0.0 ng/mL); 2.6 ng/mL in test [2] (sirolimus calibrator 5.1 ng/mL); 4.1 ng/mL in test [2] (setting [6]); 7.7 ng/mL in test [2] (setting [7]); 13.0 ng/mL in test [2] (setting [8]). Also, the “Percent (%) displaced vs. SIRO” value is on record as 52% in test [2] (sirolimus calibrator 5.1 ng/mL), 40% in test [2] (setting [6]), 38% in test [2] (setting [7]) and 41% in test [2] (setting [8]).
Consider `CO[C@H]1C[C@@H]2CC[C@@H](C)[C@@](O)(O2)C(=O)C(=O)N2CCCC[C@H]2C(=O)O[C@H]([C@H](C)C[C@@H]2CC[C@@H](O)[C@H](OC)C2)CC(=O)[C@H](C)/C=C(\C)[C@@H](O)[C@@H](OC)C(=O)[C@H](C)C[C@H](C)CCCCCC1C` (some centres unmarked) [XI, hydrogenated sirolimus], for which the figures for the “Calculated antibody cross-reactivity (percent (%) times 100)” value in test [3] and in test [1] were 0.06 % × 100 and 15.56 % × 100, respectively. Further, in test [1] (result in words), the “Cross-reactivity with the sirolimus assay antibody” value is listed as “higher cross-reactivity”. The “Displacement efficiency compared with mixture of V and VI” value in test [2] (setting [5]) and in test [4] (setting [9]) was “lower displacement efficiency” each time. Also, the “Drug concentration measured” value came out at 72.7 ng/mL in test [2] (sirolimus calibrator 0.0 ng/mL); 82.5 ng/mL in test [2] (sirolimus calibrator 5.1 ng/mL); 96.4 ng/mL in test [2] (setting [6]); 94.0 ng/mL in test [2] (setting [7]); 85.2 ng/mL in test [2] (setting [8]); 0.3 ng/mL in test [4] (setting [10]). Also, the “Drug concentration measured” value was 1.8 ng/mL in test [4] (setting [11]), 2.9 ng/mL in test [4] (setting [12]), 5.6 ng/mL in test [4] (setting [13]) and 16.0 ng/mL in test [4] (setting [14]). Also, the “Percent (%) displaced vs. SIRO” value was 1622% in test [2] (sirolimus calibrator 5.1 ng/mL); 951% in test [2] (setting [6]); 458% in test [2] (setting [7]); 269% in test [2] (setting [8]); 68% in test [4] (setting [11]); 54% in test [4] (setting [12]). The figures for the “Percent (%) displaced vs. SIRO” value in test [4] (setting [13]) and in test [4] (setting [14]) were 48% and 53%, respectively.
Take “Diels-Alder adducts of 4-phenyl-1,2,4-triazoline-3,5-dione (PTAD) and sirolimus [Mixture V + VI]”: the figures for the “Calculated antibody cross-reactivity (percent (%) times 100)” value in test [3] and in test [1] were 0.13 % × 100 and 0.29 % × 100, respectively. In test [2] (setting [5]), the “Suitability as releasing agent for sirolimus analyte” value is recorded as “suitable as a releasing agents”. Also, the “Drug concentration measured” value is on record as 1.4 ng/mL in test [2] (sirolimus calibrator 0.0 ng/mL); 5.8 ng/mL in test [2] (sirolimus calibrator 5.1 ng/mL); 9.7 ng/mL in test [2] (setting [6]); 16.8 ng/mL in test [2] (setting [7]); 27.5 ng/mL in test [2] (setting [8]); 0.6 ng/mL in test [4] (setting [10]). Besides, the “Drug concentration measured” value in test [4] (setting [11]) is listed as 2.9 ng/mL; in test [4] (setting [12]), 4.7 ng/mL; in test [4] (setting [13]) it was 9.5 ng/mL; in test [4] (setting [14]), 23.5 ng/mL. Further, the “Percent (%) displaced vs. SIRO” value in test [2] (sirolimus calibrator 5.1 ng/mL) was found to be 114%; in test [2] (setting [6]) it was 96%; in test [2] (setting [7]), 82%; in test [2] (setting [8]) it was 87%; in test [4] (setting [11]), 111%; in test [4] (setting [12]), 89%. For the same molecule, the results for the “Percent (%) displaced vs. SIRO” value in test [4] (setting [13]) and in test [4] (setting [14]) were 82% and 78%, respectively. Besides, in test [4] (setting [9]), the “Suitability as releasing agent for tacrolimus analyte” value was “suitable as a releasing agents”.

The values above are taken from patent US9121859B2, “Compounds and methods for determination of FKBP-binding immunosuppressant drugs” (Siemens Healthcare Diagnostics Inc., priority 2012, dated 2015).
